Assay results published in patent US12691070B2, “Cationic lipids and preparation method thereof” (RiboX Therapeutics HK Limited, priority 2023, dated 2026).

Experiments:
Hep G2 cells [1] = test: In vitro toxicity (CellTiter-Glo cell viability), Hep G2; format: cell-based; details: cirRNA (SEQ ID NO: 1) LNPs; Hep G2 cells;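 note: percent of untreated cells luminescence signal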
Procedure, shortened: (§1)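 RNA-LNPs 1 μg/mL; 72 h post-transfection; CellTiter-Glo luminescence read-out; % viability calculated from signal.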

[2] = LNP size and polydispersity index (PDI) by dynamic light scattering; format: physicochemical; details: LNP with cirRNA (SEQ ID NO: 1); for Size: in nm (unit assumed)
Procedure, shortened: (§2)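 Ribogreen fluorescence with and without Triton X-100 gave encapsulation as 100% − (intact/lysed) signal; DLS size, PDI and zeta potential measured on a Zetasizer. Particles: 50:10:38.5:1.5 lipid mix, luciferase circRNA or mRNA, lipid:nucleotide 15 or 6, microfluidic assembly at pH 4.5, PBS-dialyzed.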

[3] = RNA encapsulation efficacy by Quant-IT Ribogreen kit; format: physicochemical; details: LNP with cirRNA (SEQ ID NO: 1)
Procedure, shortened: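 Ribogreen read-out: encapsulation = 100% − (signal of intact RNA-LNPs / signal with Triton X-100). Particles: ionizable lipid:DSPC:Chol:DMG-PEG2000 50:10:38.5:1.5, ionizable lipid:ribonucleotide 15 or 6, final lipid 1.5–6 mM, PBS-dialyzed.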

RAW 264.7 cells [4] = test: In vitro toxicity (CellTiter-Glo cell viability), RAW 264.7; format: cell-based; details: cirRNA (SEQ ID NO: 1) LNPs; RAW 264.7 cells;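 note: percent of untreated cells luminescence signal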
Procedure, shortened: as §1

RAW 264.7 cells [5] = test: In vitro expression of firefly-luciferase, RAW 264.7; format: cell-based; details: cirRNA (SEQ ID NO: 1) LNPs; firefly-luciferase luminescence; RAW 264.7 cells
Procedure, shortened: (§3)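 Both cell lines receive RNA-LNPs carrying firefly-luciferase RNA at 100 ng/mL. Lysis follows washing at 72 h post-transfection, and luciferase activity is then quantified on a luminometer using a commercial luciferase assay reagent.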

[6] = LNP zeta potential (Zetasizer); format: physicochemical; details: LNP with cirRNA (SEQ ID NO: 1)
Procedure, shortened: as §2

Hep G2 cells [7] = test: In vitro expression of firefly-luciferase, Hep G2; format: cell-based; details: cirRNA (SEQ ID NO: 1) LNPs; firefly-luciferase luminescence; Hep G2 cells
Procedure, shortened: as §3

BALB/C mice = test: In vivo expression, whole-body luminescence (IVIS); details: cirRNA (SEQ ID NO: 1) LNPs, BALB/C mice
Protocol: 6-8 week old, female BALB/C mice were injected with 0.05 mg*kg-1 of RNA-LNPs encoding for firefly-luciferase by intravenous injection. At 6 hours post injection, animals were intraperitoneally injected with 15 mg/ml of Luciferin substrate and whole-body luminescence was determined by a bioluminescent in vivo imaging system (IVIS).

| PDI [2] | Size [2] | Encapsulation Efficiency % [3] [%] | Zeta (mV) [6] [mV] | SMILES | In vitro Viability HepG2 (Hep G2 cells [1]) [%] | In vitro Viability RAW (RAW 264.7 cells [4]) [%] | In vitro Expression RAW (RAW 264.7 cells [5]) | In vitro Expression HepG2 (Hep G2 cells [7]) | In vivo Expression (Whole Body) (BALB/C mice) |
| --- | --- | --- | --- | --- | --- | --- | --- | --- | --- |
| 0.2462 | 90.56 | 94 | −0.6677 | CCCCCCCCC(CCCCCCCC)OC(=O)CCCCCCCN(CCCCCCCCOC(=O)C(CCCCCC)CCCCCCCC)CCCOC(=O)NCCN1CCN(C)CC1 (stereo not drawn) [Lipid 347] | 92 | 96 | 4.27E+04 | 1.04E+06 | 7.61E+06 |
| 0.1452 | 75.85 | 97 | 0.02482 | CCCCCCCCC(CCCCCCCC)OC(=O)CCCCCCCN(CCCCCCCCOC(=O)C(CCCCCC)CCCCCCCC)CCCOC(=O)NCCc1ncc[nH]1 (stereo not drawn) [Lipid 349] | 90 | 87 | 7.58E+03 | 2.42E+04 | 1.01E+07 |
| 0.2483 | 116.6 | 95 | 4.334 | CCCCCCCCC(CCCCCCCC)OC(=O)CCCCCCCN(CCCCCCCCOC(=O)C(CCCCCC)CCCCCCCC)CCCOC(=O)NCCN1CCC1 (stereo not drawn) [Lipid 353] | 37 | 40 | 3.38E+03 | 4.17E+04 | 1.48E+06 |
| 0.2834 | 64.55 | 90 | 8.299 | CCCCCCCCCC(=O)OCCCCCCCN(CCCCCCCCOC(=O)C(CCCCCC)CCCCCCCC)CCCOC(=O)NCCCN(C)C (stereo not drawn) [Lipid 355] | 123 | 72 | 9.80E+02 | 1.70E+03 | 7.94E+05 |
| 0.423 | 336.5 | 77 | −0.5834 | CCCCCCCCCC(=O)OCCCCCCCN(CCCCCCCCOC(=O)C(CCCCCC)CCCCCCCC)CCCOC(=O)NCCCn1ccnc1 (stereo not drawn) [Lipid 356] | 112 | 84 | 1.06E+04 | 1.96E+03 | 5.24E+05 |
| 0.3136 | 104.3 | 87 | 6.34 | CCCCCCCCCC(=O)OCCCCCCCN(CCCCCCCCOC(=O)C(CCCCCC)CCCCCCCC)CCCOC(=O)NCCN1CCCC1 (stereo not drawn) [Lipid 357] | 120 | 8 | 7.92E+03 | 2.53E+05 | 1.85E+06 |
| 0.1606 | 81.33 | 87 | 1.109 | CCCCCCCCCC(=O)OCCCCCCCN(CCCCCCCCOC(=O)C(CCCCCC)CCCCCCCC)CCOC(=O)NCCCN1CCCCC1 (stereo not drawn) [Lipid 358] | 121 | 83 | 9.81E+03 | 1.88E+05 | 2.29E+07 |
| 0.337 | 113.9 | 89 | 6.547 | CCCCCCCCCC(=O)OCCCCCCCN(CCCCCCCCOC(=O)C(CCCCCC)CCCCCCCC)CCCOC(=O)NCCN(C)C (stereo not drawn) [Lipid 359] | 122 | 8 | 2.38E+03 | 9.26E+04 | 1.85E+06 |
| 0.2143 | 82.84 | 85 | −2.27 | CCCCCCCCCC(=O)OCCCCCCCN(CCCCCCCCOC(=O)C(CCCCCC)CCCCCCCC)CCCOC(=O)NCc1ncc[nH]1 (stereo not drawn) [Lipid 360] | 113 | 86 | 1.63E+05 | 1.22E+05 | 7.50E+07 |
| 0.438 | 91.91 | 88 | 8.107 | CCCCCCCCCC(=O)OCCCCCCCN(CCCCCCCCOC(=O)C(CCCCCC)CCCCCCCC)CCCOC(=O)NCCCN(CC)CC (stereo not drawn) [Lipid 361] | 114 | 4 | 2.97E+03 | 1.62E+05 | 1.10E+06 |
| 0.3944 | 88.25 | 89 | 11.87 | CCCCCCCCCC(=O)OCCCCCCCN(CCCCCCCCOC(=O)C(CCCCCC)CCCCCCCC)CCCOC(=O)NCCN1CCN(C)CC1 (stereo not drawn) [Lipid 362] | 106 | 0 | 1.99E+03 | 3.82E+04 | 1.68E+06 |
| 0.2547 | 130.7 | 92 | 5.356 | CCCCCCCCC(CCCCCCCC)OC(=O)CCCCCCCN(CCCCCCCCOC(=O)C(CCCCCC)CCCCCCCC)CCCNCCN(C)C (stereo not drawn) [Lipid 363] | 112 | 65 | 9.15E+03 | 3.17E+05 | 2.22E+06 |
| 0.2481 | 113.5 | 89 | 0.2395 | CCCCCCCCCCC(CCCCCCCC)COC(=O)CCCCCN(CCCCCCCCOC(=O)C(CCCCCC)CCCCCCCC)CCCOC(=O)NCCN(C)C (stereo not drawn) [Lipid 364] | 81 | 64 | 9.94E+04 | 1.11E+06 | 4.73E+06 |
| 0.1303 | 72.69 | 92 | −2.341 | CCCCCCCCCCC(CCCCCCCC)COC(=O)CCCCCN(CCCCCC(=O)OCC(CCCCCCCC)CCCCCCCCCC)CCCOC(=O)NCc1ncc[nH]1 (stereo not drawn) [Lipid 365] | 109 | 88 | 3.87E+04 | 3.17E+05 | 1.32E+08 |
| 0.2572 | 118.4 | 92 | −0.4163 | CCCCCCCCCCC(CCCCCCCC)COC(=O)CCCCCN(CCCCCC(=O)OCC(CCCCCCCC)CCCCCCCCCC)CCCOC(=O)NCCCN(CC)CC (stereo not drawn) [Lipid 366] | 84 | 99 | 2.01E+04 | 3.39E+05 | 3.26E+06 |
| 0.2544 | 131.6 | 91 | 0.7313 | CCCCCCCCCCC(CCCCCCCC)COC(=O)CCCCCN(CCCCCC(=O)OCC(CCCCCCCC)CCCCCCCCCC)CCCOC(=O)NCCN1CCN(C)CC1 (stereo not drawn) [Lipid 367] | 85 | 90 | 2.48E+04 | 5.88E+05 | 1.74E+06 |
| 0.2875 | 130.2 | 92 | 3.421 | CCCCCCCCCCC(CCCCCCCC)COC(=O)CCCCCN(CCCCCC(=O)OCC(CCCCCCCC)CCCCCCCCCC)CCCOC(=O)NCCNC(C)C (stereo not drawn) [Lipid 368] | 68 | 67 | 1.18E+05 | 1.22E+06 | 4.18E+06 |
| 0.2663 | 118.2 | 92 | 4.685 | CCCCCCCCCCC(CCCCCCCC)COC(=O)CCCCCN(CCCCCC(=O)OCC(CCCCCCCC)CCCCCCCCCC)CCCOC(=O)NCCN1CCC1 (stereo not drawn) [Lipid 372] | 42 | 57 | 3.30E+02 | 4.98E+03 | 1.10E+06 |
| 0.2353 | 92.65 | 92 | −3.695 | CCCCCCCCCCC(CCCCCCCC)COC(=O)CCCCCN(CCCCCC(=O)OCC(CCCCCCCC)CCCCCCCCCC)CCCOC(=O)NCCN1CCCCCC1 (stereo not drawn) [Lipid 373] | 63 | 91 | 2.32E+04 | 5.98E+04 | 5.62E+06 |
